# Assay results reported in patent publication US20090117545A1 (priority 2004, published 2009).
# Several values for one entry are separate records, joined by “and”; a condition that tells them apart may be missing. Equal values may be shown once. Entries after “also recorded” stand apart in the source; their conditions may differ.
# Tests used:
# VC II RNA = assay: Equilibrium dialysis with 3H-glycine, VC II RNA; type: binding, Vibrio cholerae; conditions: for restoration of equal distribution of 3H-glycine by unlabeled competitor: VC II 100 μM, excess (1 mM) unlabeled competitor after preequilibration
# Description: (§1) Methods used for equilibrium dialysis were similar to those described in Mandal et al., Cell 113, 577 (2003). Specifically, equilibrium dialysis assays were conducted using a DispoEquilibrium Dialyzer (Harvard Biosciences), wherein chamber a and b are separated by a 5,000 MWCO membrane. […] Chamber b contained VC II or VC I-II RNA transcripts at 100 μM concentration suspended in the same buffer. Equilibrations were allowed to proceed for 10 hrs at 23° C. Subsequently 5 μL of sample was drawn from each chamber and quantitated by liquid scintillation counting. […] For both RNAs, experiments i-iii (FIG. 4B) were conducted by first pre-equilibrating the chambers (left data point), and then adding unlabeled competitor as indicated followed by a second equilibration (right data point). RNAs were prepared by in vitro transcription using the appropriate PCR DNA templates as described above.
# (§2) Other notations are the same as those described for FIG. 1C.
# VC I-II RNA = assay: Equilibrium dialysis with 3H-glycine, VC I-II RNA; type: binding, Vibrio cholerae; conditions: for restoration of equal distribution of 3H-glycine by unlabeled competitor: VC I-II 100 μM, excess (1 mM) unlabeled competitor after preequilibration
# Description: as §1, §2
# [1] = test system: gcvT 5'-UTR glycine riboswitch; assay: Single-round in vitro transcription termination assay; type: biochemical, Bacillus subtilis; conditions: for effect on production of full-length RNA transcripts: single-round in vitro transcription
# Description: Transcription termination assays were conducted as described previously (Sudarsan et al., Genes Dev. 17, 2688 (2003); Landick et al., Methods Enzymol. 274, 334 (1996)).
# Transcription assays were performed using a method adapted from that described earlier (Edelstein, Annu. Rev. Biochem. 44, 209 (1975)). […] DNA templates encompassing nucleotides −406 to +7 relative to the translation start site for the gcvT operon in B. subtilis were used. Transcription assays included 20 mM Tris-HCl (pH 8.0 at 23° C.), 20 mM NaCl, 14 mM MgCl2, 0.1 mM EDTA, 0.01 mg/mL BSA, and 1% v/v glycerol. Each reaction (10 μL) contained 1 pmole of template DNA and 9 U E. coli RNA polymerase (Epicenter) and was conducted with the type and concentration of target molecule as indicated for each experiment. Transcription was initiated by the addition of the dinucleotide ApA (135 μM), GTP and UTP (2.5 μM each), ATP (1 μM), and [α-^32P]-ATP (4_Ci). After 5 min incubation at 37° C., 50 μM of each NTP was added along with 0.1 mg/mL heparin to prevent re-initiation by RNA polymerase. Transcription products generated after a 10 minute incubation were separated by denaturing 6% PAGE and visualized by using a PhosphorImager. […] Single-round transcription assays were conducted as described for FIG. 9A. […] Single-round transcription assays were conducted as described for FIG. 9A with 50 μM rNTPs.
# [2] = test system: VC I-II RNA (tandem type I and type II glycine aptamers, VC1422 gene); assay: In-line probing of VC I-II RNA; type: binding, Vibrio cholerae; conditions: for structural modulation (change in pattern of spontaneous cleavage) of VC I-II: ligand at 1 mM
# Description: In-line probing of the VC I-II construct (FIG. 1B), derived from the VC1422 gene from V. cholerae, was carried out with trace amounts of 5′ ^32P-labeled RNA using methods that are similar to those described elsewhere in Nahvi et al., Chem. Biol. 9, 1043 (2002), and Winkler et al., Nature 419, 952 (2002). RNAs were prepared by transcription from the appropriate DNA template carrying a T7 RNA polymerase promoter, which was generated by PCR from V. cholerae (C6706-st2) genomic DNA using the primers 5′-[sequence]-[sequence] […] The underlined nucleotides identify sequences corresponding to the promoter for T7 RNA polymerase.
# In a typical in line probing assay, ˜15 nM of labeled RNA is incubated in buffer (20 mM MgCl2, 50 mM Tris, pH 8.3 at 25° C., 100 mM KCl) in the absence or presence of ligand for 40 hrs at 23° C. After incubation, spontaneously cleaved products were separated using 10% denaturing PAGE and were visualized and quantitated using a PhosphorImager (Molecular Dynamics).
# Lowercase letters in FIG. 1B and FIG. 8A identify nucleotides that were added to the construct to permit efficient transcription in vitro using RiboMAX transcription (Promega). For the data presented in FIG. 5, fraction bound equals 1 minus the normalized fraction cleaved in the in-line probing assay at U207-C208 for VC II and U74 for VC I-II.
# Curves for the absence of cooperativity (blue curve, n=1) and presence of perfect cooperativity at two binding sites (orange curve, n=2) are depicted. […] The fraction of RNA cleaved at four regions in both RNA constructs was determined by in-line probing. The amount of cleavage was normalized to range from 0 to 1 using the minimum and maximum amounts cleaved for each region.
# [3] = test system: VC II RNA (type II glycine aptamer alone); assay: In-line probing of VC II RNA; type: binding, Vibrio cholerae; conditions: for EC50: in-line probing, read-out: concentration of ligand needed to cause half-maximal structure modulation of VC II
# [4] = test system: wild-type gcvT IGR fused to β-galactosidase reporter gene; conditions: amino acid present in growth medium
# Description: Specifically, nucleotides −429 to +7 relative to the B. subtilis gcvT translation start site of the first open reading frame of the gcvT operon was PCR amplified as an EcoRI-BamHI fragment from B. subtilis strain 1A2 (Bacillus Genetic Stock Center, Columbus, Ohio). The wild type construct was cloned into pDG1661 at a site directly upstream of the lacZ reporter gene. […] The IGR used for this study (FIG. 8A) differed in sequence at three nucleotides (151-153, TTT to AAA) relative to the genomic database. Plasmids generated were integrated into the amyE locus of strain 1A2. Transformants were selected for chloramphenicol (5 μg/ml) resistance and screened for sensitivity to spectinomycin (100 μg/ml). Cells were grown in defined media (0.5% w/v glucose, 2 g/L (NH4)2SO4, 25 g/L K2HPO4-3H2O, 6 g/L KH2PO4, 1 g/L sodium citrate, 0.2 g/L MgSO4-7H2O, 2 μM MnCl2, 15 mM glutamate, and 5 mg/L chloramphenicol) to an A595 of 0.1, pelleted, and resuspended in minimal media supplemented with 500 μg/L of amino acid as indicated for each experiment. Cultures were incubated for an additional 3 hr and β-galactosidase assays were performed as described previously (Miller, A Short Course in Bacterial Genetics (Cold Spring Harbor Laboratory Press, Cold Spring Harbor, N.Y., 1992)). Miller units plotted are the average of six values (three assays conducted in duplicate).
# [5] = test system: variant VC I-II construct wherein aptamer II has been mutated; conditions: relative to wild-type VC I-II
SMILES,restoration of equal distribution of 3H-glycine by unlabeled competitor (VC II RNA),restoration of equal distribution of 3H-glycine by unlabeled competitor (VC I-II RNA),effect on production of full-length RNA transcripts [1],structural modulation (change in pattern of spontaneous cleavage) of VC I-II [2],EC50 [3],other results
N[C@@H](CO)C(=O)O [L-serine],failed to restore equal distribution,failed to restore equal distribution,rejected; also recorded: failed to trigger an increase,–,–,–
"CC(C)(C)OC(=O)CN [glycine tertiary butyl ester, glycine tert-butyl ester]",–,–,–,measurable structural modulation,~1000 µM,–
C[C@H](N)C(=O)O [L-alanine],failed to restore equal distribution,failed to restore equal distribution,failed to trigger an increase,did not induce change,–,expression of β-galactosidase reporter [4]: low amount of gene expression
NCC(=O)O [glycine],restored an equal distribution,restored an equal distribution,substantial increase in the amount of full-length RNA transcript,caused changes in the pattern of spontaneous cleavage,~10 µM,"increase in glycine concentration for change from 10% to 90% ligand-bound RNA ([2]; VC I-II): 10 fold; Hill coefficient n ([2]; VC I-II, best fit of four regions, maximum for two sites is 2): 1.64 and 1.64±0.07; Kd ([2]; VC I-II, best fit of four regions, read-out: constant K of Hill equation): 40 ± 1 µM; Hill constant n ([3]; VC II, best fit of four regions): 0.97±0.04; Kd ([3]; VC II, best fit of four regions, read-out: constant K of Hill equation): 24 ± 12 µM; increase in glycine concentration for change from 10% to 90% ligand-bound RNA ([3]; single aptamer RNA, printed as VC I RNA): 100 fold; equivalents of glycine bound by RNA (VC II RNA; three equivalents of glycine versus one equivalent of VC II RNA (100 μM), 1 expected): 0.8 equivalents; increase in the amount of glycine bound by RNA (VC I-II RNA; one equivalent of VC I-II RNA (two aptamer equivalents) versus VC II, 2 expected): 1.6 fold; glycine concentration at which full-length transcripts are favored ([1]; added to transcription mixture): > 10 µM; Hill coefficient of best-fit curve to transcription data ([1]; yield of full-length transcripts versus glycine): 1.4; loss of affinity in the unaltered aptamer I [5]: more than 1,000 fold"
NCC(=O)NO [glycine hydroxamate],–,–,–,–,~1000 µM,–
COC(=O)CN [glycine methyl ester],–,–,–,measurable structural modulation,~100 µM,–
